Legend:
Experiment in all cases: relative viability (nuclei count vs DMSO), 5 days (fraction); higher = more cells survive
H3255 = tested on: H3255
Procedure, shortened: (§1)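 Medians of duplicate plates are given as relative viability. That measure is the nuclei count in treated wells divided by the count in vehicle wells. Counts were taken on 4× images of lung cancer cell lines in 1536-well plates, 5 days after pin-tool dosing the day after seeding with one drug alone or a fixed anchor-drug dose plus five library-drug doses (not always all listed) in √10 steps.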

NCI-H1993 = tested on: NCI-H1993
Procedure, shortened: as §1

NCI-H1975 = tested on: NCI-H1975
Procedure, shortened: as §1

LU99A = tested on: LU99A
Procedure, shortened: as §1

NCI-H647 = tested on: NCI-H647
Procedure, shortened: as §1

NCI-H838 = tested on: NCI-H838
Procedure, shortened: as §1

LC-2-ad = tested on: LC-2-ad
Procedure, shortened: as §1

HCC-366 = tested on: HCC-366
Procedure, shortened: as §1

NCI-H1944 = tested on: NCI-H1944
Procedure, shortened: as §1

HCC-15 = tested on: HCC-15
Procedure, shortened: as §1

PC-3 [JPC-3] = tested on: PC-3 [JPC-3]
Procedure, shortened: as §1

HARA = tested on: HARA
Procedure, shortened: as §1

NCI-H2228 = tested on: NCI-H2228
Procedure, shortened: as §1

NCI-H661 = tested on: NCI-H661
Procedure, shortened: as §1

NCI-H1666 = tested on: NCI-H1666
Procedure, shortened: as §1

CAL-12T = tested on: CAL-12T
Procedure, shortened: as §1

NCI-H520 = tested on: NCI-H520
Procedure, shortened: as §1

NCI-H1734 = tested on: NCI-H1734
Procedure, shortened: as §1

SK-LU-1 = tested on: SK-LU-1
Procedure, shortened: as §1

COR-L 105 = tested on: COR-L 105
Procedure, shortened: as §1

NCI-H3122 = tested on: NCI-H3122
Procedure, shortened: as §1

PC-14 = tested on: PC-14
Procedure, shortened: as §1

`Cc1cnc(-c2cnc(NCCNc3ccc(C#N)cn3)nc2-c2ccc(Cl)cc2Cl)[nH]1` + C[C@@H](Oc1cc(-c2cnn(C3CCNCC3)c2)cnc1N)c1c(Cl)ccc(F)c1Cl [Crizotinib] (partner 1 µM) was tested, and the relative viability (H3255; first compound 0.08 µM) was 1.03, the relative viability (H3255; first compound 0.253 µM) was 0.809 and the relative viability (H3255; first compound 0.8 µM) was 0.853. The relative viability (H3255; first compound 2.53 µM) was 0.79, the relative viability (NCI-H1993; first compound 0.08 µM) was 0.804 and the relative viability (NCI-H1993; first compound 0.253 µM) was 0.861. It also gave a relative viability (NCI-H1993; first compound 0.8 µM) of 0.884, a relative viability (NCI-H1993; first compound 2.53 µM) of 0.954 and a relative viability (NCI-H1975; first compound 0.08 µM) of 0.968. For the same compound, the relative viability (NCI-H1975; first compound 0.253 µM) was 0.907, the relative viability (NCI-H1975; first compound 0.8 µM) was 0.906 and the relative viability (NCI-H1975; first compound 2.53 µM) was 0.569. It also gave a relative viability (LU99A; first compound 0.08 µM) of 0.621, a relative viability (LU99A; first compound 0.253 µM) of 0.459 and a relative viability (LU99A; first compound 0.8 µM) of 0.534. For the same compound, the relative viability (LU99A; first compound 2.53 µM) was 0.592, the relative viability (NCI-H647; first compound 0.08 µM) was 1.06 and the relative viability (NCI-H647; first compound 0.253 µM) was 0.783. For the same compound, the relative viability (NCI-H647; first compound 0.8 µM) was 1.07, the relative viability (NCI-H647; first compound 2.53 µM) was 0.927 and the relative viability (NCI-H838; first compound 0.08 µM) was 0.855. It also gave a relative viability (NCI-H838; first compound 0.253 µM) of 0.807, a relative viability (NCI-H838; first compound 0.8 µM) of 0.951 and a relative viability (NCI-H838; first compound 2.53 µM) of 1.01. The relative viability (LC-2-ad; first compound 0.08 µM) was 0.489, the relative viability (LC-2-ad; first compound 2.53 µM) was 0.426 and the relative viability (HCC-366; first compound 0.08 µM) was 0.654. For the same compound, the relative viability (HCC-366; first compound 0.253 µM) was 0.408, the relative viability (HCC-366; first compound 0.8 µM) was 0.534 and the relative viability (HCC-366; first compound 2.53 µM) was 0.422. It also gave a relative viability (NCI-H1944; first compound 0.08 µM) of 1.11, a relative viability (NCI-H1944; first compound 0.8 µM) of 1.16 and a relative viability (NCI-H1944; first compound 2.53 µM) of 1.1. It also gave a relative viability (HCC-15; first compound 0.08 µM) of 0.781, a relative viability (HCC-15; first compound 0.253 µM) of 0.659 and a relative viability (HCC-15; first compound 0.8 µM) of 0.799. The relative viability (HCC-15; first compound 2.53 µM) was 0.803, the relative viability (PC-3 [JPC-3]; first compound 0.08 µM) was 0.936 and the relative viability (PC-3 [JPC-3]; first compound 0.253 µM) was 0.894. The relative viability (PC-3 [JPC-3]; first compound 0.8 µM) was 0.999, the relative viability (PC-3 [JPC-3]; first compound 2.53 µM) was 0.953 and the relative viability (HARA; first compound 0.08 µM) was 1.02. The relative viability (HARA; first compound 0.253 µM) was 0.956, the relative viability (HARA; first compound 0.8 µM) was 1.06 and the relative viability (HARA; first compound 2.53 µM) was 1.12. For the same compound, the relative viability (NCI-H2228; first compound 0.08 µM) was 0.47, the relative viability (NCI-H2228; first compound 0.253 µM) was 0.412 and the relative viability (NCI-H2228; first compound 0.8 µM) was 0.612. For the same compound, the relative viability (NCI-H2228; first compound 2.53 µM) was 0.619, the relative viability (NCI-H661; first compound 0.08 µM) was 0.924 and the relative viability (NCI-H661; first compound 0.253 µM) was 0.941. For the same compound, the relative viability (NCI-H661; first compound 0.8 µM) was 0.947, the relative viability (NCI-H661; first compound 2.53 µM) was 0.867 and the relative viability (NCI-H1666; first compound 0.08 µM) was 0.981. The relative viability (NCI-H1666; first compound 0.253 µM) was 0.822, the relative viability (NCI-H1666; first compound 0.8 µM) was 1.26 and the relative viability (NCI-H1666; first compound 2.53 µM) was 1.19. It also gave a relative viability (CAL-12T; first compound 0.08 µM) of 0.722, a relative viability (CAL-12T; first compound 0.253 µM) of 0.507 and a relative viability (CAL-12T; first compound 0.8 µM) of 0.529. It also gave a relative viability (CAL-12T; first compound 2.53 µM) of 0.376, a relative viability (NCI-H520; first compound 0.08 µM) of 0.901 and a relative viability (NCI-H520; first compound 0.253 µM) of 0.75. The relative viability (NCI-H520; first compound 0.8 µM) was 0.765, the relative viability (NCI-H520; first compound 2.53 µM) was 0.755 and the relative viability (NCI-H1734; first compound 0.08 µM) was 0.65. It also gave a relative viability (NCI-H1734; first compound 0.253 µM) of 0.636, a relative viability (NCI-H1734; first compound 0.8 µM) of 0.647 and a relative viability (NCI-H1734; first compound 2.53 µM) of 0.631. The relative viability (SK-LU-1; first compound 0.08 µM) was 1.01, the relative viability (SK-LU-1; first compound 0.253 µM) was 0.918 and the relative viability (SK-LU-1; first compound 0.8 µM) was 1.17. For the same compound, the relative viability (SK-LU-1; first compound 2.53 µM) was 1.3, the relative viability (COR-L 105; first compound 0.08 µM) was 0.869 and the relative viability (COR-L 105; first compound 0.253 µM) was 0.716. The relative viability (COR-L 105; first compound 0.8 µM) was 0.706, the relative viability (COR-L 105; first compound 2.53 µM) was 0.529 and the relative viability (NCI-H3122; first compound 0.08 µM) was 0.285. It also gave a relative viability (NCI-H3122; first compound 0.253 µM) of 0.319, a relative viability (NCI-H3122; first compound 0.8 µM) of 0.253 and a relative viability (NCI-H3122; first compound 2.53 µM) of 0.304. For the same compound, the relative viability (PC-14; first compound 0.08 µM) was 0.911, the relative viability (PC-14; first compound 0.253 µM) was 0.811 and the relative viability (PC-14; first compound 0.8 µM) was 0.896. It also gave a relative viability (PC-14; first compound 2.53 µM) of 0.807.

From the supplement of paper PMC10307832
